Structures are written as SMILES.

The subject of one assay is ulcer. Nature of the assay: Anti-ulcer test (restraint and water immersion ulcer in rats, i.p.). The settings on record: Rattus norvegicus, ip, read-out: % Inhibition of Ulcer. It is filed as in vivo, Male Wistar rats. In short, it runs like this: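 Male Wistar rats (~150 g), fasted 24 h, dosed i.p. with compound in physiological saline; 1 h later restrained and immersed to xiphisternum in 21 °C water for 6 h. Stomachs examined microscopically, ulcers scored 0–3, and percent inhibition calculated.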
For `CC(C)CC(NC(=O)C(O)C1OC(=O)CC1N)C1Cc2cccc(OCCCBr)c2C(=O)O1` (stereo not drawn) [IIIa-13-19], the inhibition in vivo at 50 mg/kg worked out at 100%.

The assay is the same for the next values; noted with them: Rattus norvegicus, ip; 25 mg/kg i.p.; read-out: % Inhibition of Ulcer.
Turning to `CCCCCc1ccc(CNC(=O)CC(N)C(O)C(O)C(=O)NC(CC(C)C)C2Cc3cccc(O)c3C(=O)O2)cc1` (stereo not drawn) [VII-1-40], the inhibition in vivo at 25 mg/kg was determined as 94%.
In the case of `CCCCCC(=O)OC(C)CCNC(=O)CC(N)C(O)C(O)C(=O)NC(CC(C)C)C1Cc2cccc(O)c2C(=O)O1` (stereo not drawn) [VII-1-29], the inhibition in vivo at 25 mg/kg amounted to 94%.
For `CCC(=O)CNC(=O)CC(N)C(O)C(O)C(=O)NC(CC(C)C)C1Cc2cccc(O)c2C(=O)O1` (stereo not drawn) [VII-1-21], the inhibition in vivo at 25 mg/kg stood at 100%.
As for `CCCCNC(=O)CC(N)C(O)C(OCCC)C(=O)NC(CC(C)C)C1Cc2cccc(OCC)c2C(=O)O1` (stereo not drawn) [VII-7-4], the inhibition in vivo at 25 mg/kg stood at 66%.
The same measure, in the same setting: next, `CCOc1cccc2c1C(=O)OC(C(CC(C)C)NC(=O)C(OC(=O)C(C)C)C(O)C(N)CC(N)=O)C2` (stereo not drawn) [VII-6-2]: 66%; `CCNC(=O)CC(N)C(O)C(OC)C(=O)NC(CC(C)C)C1Cc2cccc(OC(=O)CC)c2C(=O)O1` (stereo not drawn) [VII-9-1]: 66%; `CC(=O)N1CCC(CNC(=O)CC(N)C(O)C(O)C(=O)NC(CC(C)C)C2Cc3cccc(O)c3C(=O)O2)CC1` (stereo not drawn) [VII-1-17]: 83%.
In the case of `CC(=O)OC(C(=O)NC(CC(C)C)C1Cc2cccc(O)c2C(=O)O1)C(O)C(N)CC(N)=O` (stereo not drawn) [VII-2-1], the inhibition in vivo at 25 mg/kg worked out at 78%.
For the compound `CC(=O)OC(C)CCNC(=O)CC(N)C(O)C(O)C(=O)NC(CC(C)C)C1Cc2cccc(O)c2C(=O)O1` (stereo not drawn) [VII-1-28], the inhibition in vivo at 25 mg/kg came to 94%.
In the case of `CCOC(C(=O)NC(CC(C)C)C1Cc2cccc(O)c2C(=O)O1)C(O)C(N)CC(N)=O` (stereo not drawn) [VII-8-3], the inhibition in vivo at 25 mg/kg stood at 89%.
On to `CCCCNC(=O)CC(NCCCC)C(O)C(O)C(=O)NC(CC(C)C)C1Cc2cccc(O)c2C(=O)O1` (stereo not drawn) [VII-10-4], for which the inhibition in vivo at 25 mg/kg came out at 72%.

Still in this assay, the particulars now being: Rattus norvegicus, ip; 50 mg/kg i.p.; read-out: % Inhibition of Ulcer.
On to `CC(=O)OC(C(=O)NC(CC(C)C)C1Cc2cccc(O)c2C(=O)O1)C1OC(=O)CC1NC(=O)c1ccc(OCCC(C)C)cc1` (stereo not drawn) [IIIa-2-9], for which the inhibition in vivo at 50 mg/kg is 33%.
As to `CCOc1cccc2c1C(=O)OC(C(CC(C)C)NC(=N)C(O)C(O)C(CC(=O)O)NC)C2` (stereo not drawn) [Vb-23-1], the inhibition in vivo at 50 mg/kg was found to be 89%.
As to `CCOc1cccc2c1C(=O)OC(C(CC(C)C)NC(=N)C(OC(=O)CC)C(O)C(N)CC(=O)O)C2` (stereo not drawn) [Vb-6-3], the inhibition in vivo at 50 mg/kg was determined as 66%.
For the compound `CC(=O)OC(C(=O)NC(CC(C)C)C1Cc2cccc(O)c2C(=O)O1)C1OC(=O)CC1NC(=O)c1ccc(C)cc1` (stereo not drawn) [IIIa-2-8], the inhibition in vivo at 50 mg/kg worked out at 44%.
On the same count and under the same terms, under `CCOc1cccc2c1C(=O)OC(C(CC(C)C)NC(=O)C(OC(C)=O)C1OC(=O)CC1NC(=O)c1ccc(OCCC(C)C)cc1)C2` (stereo not drawn) [IIIa-6-9] stands 22%.
On the same count and under the same terms, under `CCCCCCCCC=CCCCCCCCC(=O)NC1CC(=O)OC1C(OC(C)=O)C(=O)NC(CC(C)C)C1Cc2cccc(O)c2C(=O)O1` (stereo not drawn) [IIIa-2-5] stands 33%.
`COc1ccc(COc2cccc3c2C(=O)OC(C(CC(C)C)NC(=O)C(O)C2OC(=O)CC2N)C3)cc1` (stereo not drawn) [IIIa-13-23]: the inhibition in vivo at 50 mg/kg was found to be 72%.
As for `CCCCN=C(NC(CC(C)C)C1Cc2cccc(O)c2C(=O)O1)C(O)C(O)C(CC(=O)O)NCCCC` (stereo not drawn) [Vb-10-3], the inhibition in vivo at 50 mg/kg is 89%.
As to `CCOc1cccc2c1C(=O)OC(C(CC(C)C)NC(=N)C(OC(C)=O)C(O)C(N)CC(=O)O)C2` (stereo not drawn) [Vb-6-1], the inhibition in vivo at 50 mg/kg was determined as 66%.
As to `CCOc1cccc2c1C(=O)OC(C(CC(C)C)NC(=O)C(OC)C1OC(=O)CC1NC(C)=O)C2` (stereo not drawn) [IIIa-7-1], the inhibition in vivo at 50 mg/kg was 33%.
Consider `CCCC(=O)NC1CC(=O)OC1C(OC(C)C)C(=O)NC(CC(C)C)C1Cc2cccc(OCC3CCCCC3)c2C(=O)O1` (stereo not drawn) [IIIa-7-12], for which the inhibition in vivo at 50 mg/kg came to 33%.
For `CCC(=O)Oc1cccc2c1C(=O)OC(C(CC(C)C)NC(=O)C(OC)C1OC(=O)CC1N)C2` (stereo not drawn) [IIIa-17-5], the inhibition in vivo at 50 mg/kg came out at 44%.
Still for that read-out and setting: next, `CC(=O)NC1CC(=O)OC1C(OC(C)=O)C(=O)NC(CC(C)C)C1Cc2cccc(OC(C)=O)c2C(=O)O1` (stereo not drawn) [IIIa-3-1]: 33%; `CCCCOC(C(=O)NC(CC(C)C)C1Cc2cccc(OC)c2C(=O)O1)C1OC(=O)CC1NC` (stereo not drawn) [IIIa-33-1]: 56%; `CCOc1cccc2c1C(=O)OC(C(CC(C)C)NC(=O)C(O)C1OC(=O)CC1NC(=O)Cn1cnnn1)C2` (stereo not drawn) [IIIa-5-72]: 44%.
Turning to `CCCCCCCCCCCCCCCCCC(=O)Oc1cccc2c1C(=O)OC(C(CC(C)C)NC(=O)C(OC)C1OC(=O)CC1N)C2` (stereo not drawn) [IIIa-17-2], the inhibition in vivo at 50 mg/kg was 44%.
Take `CC(=O)Oc1cccc2c1C(=O)OC(C(CC(C)C)NC(=N)C(OC(C)=O)C(O)C(CC(=O)O)NCc1ccc(C)cc1)C2` (stereo not drawn) [Vb-12-3]: the inhibition in vivo at 50 mg/kg is 44%.
For the compound `CCOc1cccc2c1C(=O)OC(C(CC(C)C)NC(=O)C(O)C1OC(=O)CC1NC(=O)C=Cc1ccoc1)C2` (stereo not drawn) [IIIa-5-56], the inhibition in vivo at 50 mg/kg worked out at 44%.
Regarding `CNC1CC(=O)OC1C(O)C(=O)NC(CC(C)C)C1Cc2cccc(OC(C)=O)c2C(=O)O1` (stereo not drawn) [IIIa-30-1], the inhibition in vivo at 50 mg/kg worked out at 78%.
Still for that read-out and setting: next, `CCOc1cccc2c1C(=O)OC(C(CC(C)C)NC(=O)C(O)C1OC(=O)CC1NC(=O)c1ccc3ccccc3c1)C2` (stereo not drawn) [IIIa-5-17]: 33%; `CCCCN=C(NC(CC(C)C)C1Cc2cccc(OCC)c2C(=O)O1)C(O)C(O)C(N)CC(=O)O` (stereo not drawn) [Vb-5-2]: 89%.
As for `CC(C)CC(NC(=O)C(O)C1OC(=O)CC1NC(=O)C(Cl)(Cl)Cl)C1Cc2cccc(O)c2C(=O)O1` (stereo not drawn) [IIIa-1-12], the inhibition in vivo at 50 mg/kg was 66%.
For `CCCCCCCCOc1cccc2c1C(=O)OC(C(CC(C)C)NC(=O)C(O)C1OC(=O)CC1NCC)C2` (stereo not drawn) [IIIa-22-11], the inhibition in vivo at 50 mg/kg was 83%.
In the case of `Cc1ccc(CC(=O)NC2CC(=O)OC2C(O)C(=O)NC(CC(C)C)C2Cc3cccc(O)c3C(=O)O2)cc1` (stereo not drawn) [IIIa-1-65], the inhibition in vivo at 50 mg/kg came out at 66%.
The same measure, in the same setting: under `CCCOC(C(=O)NC(CC(C)C)C1Cc2cccc(OCC)c2C(=O)O1)C1OC(=O)CC1N` (stereo not drawn) [IIIa-15-8] stands 56%.
Turning to `CCNC(CC(=O)O)C(O)C(OC(C)=O)C(=N)NC(CC(C)C)C1Cc2cccc(O)c2C(=O)O1` (stereo not drawn) [Vb-11-1], the inhibition in vivo at 50 mg/kg was found to be 78%.
In the case of `CCOc1cccc2c1C(=O)OC(C(CC(C)C)NC(=N)C(O)C(O)C(N)CC(=O)O)C2` (stereo not drawn) [Vb-5-1], the inhibition in vivo at 50 mg/kg amounted to 94%.
Regarding `CCC(=O)OC(C(=O)NC(CC(C)C)C1Cc2cccc(OC(=O)C(C)C)c2C(=O)O1)C1OC(=O)CC1NC(C)=O` (stereo not drawn) [IIIa-3-2], the inhibition in vivo at 50 mg/kg was found to be 33%.
Take `CCCCCNC(=O)C=CC(O)C(O)C(=O)NC(CC(C)C)C1Cc2cccc(O)c2C(=O)O1` (stereo not drawn) [VIII-1-2]: the inhibition in vivo at 50 mg/kg was 56%.
For `CC(=O)Oc1cccc2c1C(=O)OC(C(CC(C)C)NC(=O)C(O)C1OC(=O)CC1N)C2` (stereo not drawn) [IIIa-12-1], the inhibition in vivo at 50 mg/kg was 78%.
The same measure, in the same setting: next, `CCCC(=O)Oc1cccc2c1C(=O)OC(C(CC(C)C)NC(=O)C(OC(C)=O)C1OC(=O)CC1N)C2` (stereo not drawn) [IIIa-11-6]: 56%; `CCCCCCCCCCCCCCCCCC(=O)Oc1cccc2c1C(=O)OC(C(CC(C)C)NC(=O)C(O)C1C=CC(=O)O1)C2` (stereo not drawn) [IVa-3-9]: 33%.
Turning to `CNC1CC(=O)OC1C(O)C(=O)NC(CC(C)C)C1Cc2cccc(OCCC(C)C)c2C(=O)O1` (stereo not drawn) [IIIa-31-4], the inhibition in vivo at 50 mg/kg turned out to be 89%.
`CCOC(C(=O)NC(CC(C)C)C1Cc2cccc(OC(=O)C(Cl)(Cl)Cl)c2C(=O)O1)C1OC(=O)CC1N` (stereo not drawn) [IIIa-17-6]: the inhibition in vivo at 50 mg/kg was found to be 56%.
Take `Cc1ccc(COc2cccc3c2C(=O)OC(C(CC(C)C)NC(=O)C(O)C2C=CC(=O)O2)C3)cc1` (stereo not drawn) [IVa-4-21]: the inhibition in vivo at 50 mg/kg stood at 33%.
As to `COC(C)CC(=O)NC1CC(=O)OC1C(O)C(=O)NC(CC(C)C)C1Cc2cccc(OC(C)=O)c2C(=O)O1` (stereo not drawn) [IIIa-4-6], the inhibition in vivo at 50 mg/kg was 44%.
As to `CCCCCCCCCCCCCCCCCCNC(=O)C=CC(O)C(O)C(=O)NC(CC(C)C)C1Cc2cccc(O)c2C(=O)O1` (stereo not drawn) [VIII-1-3], the inhibition in vivo at 50 mg/kg was determined as 44%.
In the case of `CC(=O)Oc1cccc2c1C(=O)OC(C(CC(C)C)NC(=O)C(OC(=O)C(Cl)(Cl)Cl)C1OC(=O)CC1NC(=O)C(Cl)(Cl)Cl)C2` (stereo not drawn) [IIIa-3-10], the inhibition in vivo at 50 mg/kg stood at 33%.
Consider `CCCCCCC(=O)NC1CC(=O)OC1C(O)C(=O)NC(CC(C)C)C1Cc2cccc(O)c2C(=O)O1` (stereo not drawn) [IIIa-1-8], for which the inhibition in vivo at 50 mg/kg amounted to 66%.
Turning to `CCCCOc1cccc2c1C(=O)OC(C(CC(C)C)NC(=O)C(OC)C1OC(=O)CC1NCC)C2` (stereo not drawn) [IIIa-24-16], the inhibition in vivo at 50 mg/kg is 56%.
The same measure, in the same setting: next, `C#CCNC1CC(=O)OC1C(O)C(=O)NC(CC(C)C)C1Cc2cccc(O)c2C(=O)O1` (stereo not drawn) [IIIa-18-46]: 100%; `CC(C)CC(NC(=O)C(O)C1OC(=O)CC1NC(=O)c1ccco1)C1Cc2cccc(O)c2C(=O)O1` (stereo not drawn) [IIIa-1-22]: 66%.
For `CCNC1CC(=O)OC1C(OC(C)=O)C(=O)NC(CC(C)C)C1Cc2cccc(O)c2C(=O)O1` (stereo not drawn) [IIIa-19-1], the inhibition in vivo at 50 mg/kg stood at 66%.
For `CCNC(CC(=O)O)C(O)C(O)C(=N)NC(CC(C)C)C1Cc2cccc(OC)c2C(=O)O1` (stereo not drawn) [Vb-14-1], the inhibition in vivo at 50 mg/kg stood at 89%.
For `CC(C)CC(NC(=O)C(O)C1OC(=O)CC1NCCCCCO)C1Cc2cccc(O)c2C(=O)O1` (stereo not drawn) [IIIa-18-52], the inhibition in vivo at 50 mg/kg is 94%.
Still for that read-out and setting: under `CCCCOc1cccc2c1C(=O)OC(C(CC(C)C)NC(=N)C(OCCCC)C(O)C(N)CC(=O)O)C2` (stereo not drawn) [Vb-7-2] stands 66%; under `CCCCOC(C(=O)NC(CC(C)C)C1Cc2cccc(OC(C)=O)c2C(=O)O1)C1OC(=O)CC1NCC` (stereo not drawn) [IIIa-26-1], 66%; under `CCCOC(C(=O)NC(CC(C)C)C1Cc2cccc(OCC)c2C(=O)O1)C1OC(=O)CC1NC(=O)C(Cl)(Cl)Cl` (stereo not drawn) [IIIa-7-17], 33%.

Values taken from patent US4393225A, “AI-77 Compounds and pharmaceutically acceptable salts thereof” (Asahi Kasei Kogyo Kabushiki Kaisha, priority 1979, dated 1983).
